Source: article PMC10539800, “Small-molecule inhibitors of the PDZ domain of Dishevelled proteins interrupt Wnt signalling” (Magnetic resonance, 2021)

Tests used:
Dvl-3 PDZ [1] = target: T1, Dvl-3 PDZ (Homo sapiens, UniProt Q92997); assay: Binding constant by isothermal titration calorimetry (ITC); settings: for Kd: by ITC, one-site binding model, 25 °C, read-out: K D Dvl-3 PDZ
T1 construct: spectra of Dvl-3 PDZ in the absence and presence of the compound; His-tag (cleaved yes); made in house
T1 sequence (Q92997 243-336): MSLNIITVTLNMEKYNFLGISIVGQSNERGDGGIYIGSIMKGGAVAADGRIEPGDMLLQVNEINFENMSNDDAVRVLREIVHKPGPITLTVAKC
Procedure: Isothermal titration calorimetry (ITC) experiments were performed using a VP-ITC system (MicroCal). Protein in 20 mM HEPES buffer and 50 mM NaCl (pH 7.4) was centrifuged and degassed before the experiment. A 200 µM ligand solution containing 2 % DMSO was injected 30 times in 10 µL aliquots at 120 s intervals with a stirring speed of 1000 rpm into a 1.4 mL sample cell containing the Dvl PDZ domain at a concentration of 20 µM at 25 ^∘ C. Control experiment was initially determined by titrating ligand into buffer at the same conditions. […] Thermodynamic properties and binding constants were determined by fitting the data with a non-linear least-squares routine using a single-site binding model with Origin (OriginLab) for ITC v.7.2 (MicroCal).

Dvl-3 PDZ [2] = target: T1, Dvl-3 PDZ; assay: NMR 1H-15N HSQC chemical shift perturbation; type: binding; settings: for Chemical shift perturbation ΔCSP: Dvl-3 PDZ, average of the three strongest shifting cross peaks
Procedure: The results of virtual screening were checked experimentally by comparing 2D ^1H-^15N HSQC (heteronuclear single quantum correlation) spectra of Dvl-3 PDZ in the absence and presence of the compound to elucidate ligand-induced changes of chemical shifts. Chemical shift perturbation differences ( Δ CSP, representing the average of the three strongest shifting cross peaks according to Eq. 1) were evaluated in cases where the residues responding strongest are inside the area defined by Fig. 1a. […] In most cases, the signals of residues S263, V287, and R320 (Fig. 1a) within the conserved binding site were most strongly perturbed (Fig. S2). With the Δ CSP of 0.12 ppm, the isoleucine-derived compound 1 ((2,3-dihydrobenzo[b][1,4]dioxin-6-yl)sulfonyl)-L-isoleucine containing a sulfonamide moiety was detected initially as one of the best “hits” according to chemical shift changes. The sulfonamide is a well-known moiety in drug discovery (Mathvink et al., 1999; Wu et al., 1999; Sleight et al., 1998; O'Brien et al., 2000; Tellew et al., 2003).
Two-dimensional ^1H-^15N HSQC spectra were used to screen a library of 212 compounds designed by the company Enamine for PDZ domains. 50 µM of ^15N -labelled protein samples was prepared in a 20 mM sodium phosphate buffer, containing 50 mM sodium chloride, 0.02 % ( w/v ) NaN3 , at pH 7.4. Stock solutions of small molecules were prepared in DMSO-d6 at a concentration of 160 mM. A ^1H-^15N HSQC spectrum of Dvl PDZ was acquired at 300 K with 5 % DMSO-d6 in the absence of ligand as reference spectrum. Mixtures of 16 compounds were added to ^15N -labelled Dvl PDZ at eightfold molar excess each. The final concentration of DMSO-d6 in the protein–ligand solutions was 5 %. Spectra were acquired with eight scans and 256 points in the indirect dimension. […] The active compound was obtained through successive deconvolution. Experiments were recorded on a Bruker DRX600 spectrometer equipped with a triple-resonance cryoprobe. The preparation of samples was done automatically by a Tecan Genesis RSP 150 pipetting robot. Spectra were analysed using the programs TOPSPIN and SPARKY (Goddard and Kneller, 2003).
50 µM of ^15N -labelled protein samples was prepared in a 20 mM sodium phosphate buffer containing 50 mM sodium chloride, 0.02 % ( w/v ) NaN3 , at pH 7.4. Stock solutions of small molecules were prepared in DMSO-d6 at a concentration of 160 mM. A ^1H-^15N HSQC spectrum of Dvl PDZ was acquired at 300 K with 5 % DMSO-d6 in the absence of ligand as reference spectrum. Mixtures of 16 compounds were added to ^15N -labelled Dvl PDZ at eightfold molar excess each. The final concentration of DMSO-d6 in the protein–ligand solutions was 5 %. Spectra were acquired with eight scans and 256 points in the indirect dimension.
The active compound was obtained through successive deconvolution. Experiments were recorded on a Bruker DRX600 spectrometer equipped with a triple-resonance cryoprobe. The preparation of samples was done automatically by a Tecan Genesis RSP 150 pipetting robot. Spectra were analysed using the programs TOPSPIN and SPARKY.

MTT cell viability assay = type: cell-based; settings: human; HEK293 cells, 24 h after treatment; read-out: EC 50 cell viability
Procedure: These compounds were selected due to different substituents at the R 1 , including halogens. […] In this way, we aimed to develop both potent and less-toxic cell-permeable inhibitors. […] Their binding constants almost have the same value despite the different substituents (bromine or chlorine) at the pyrrole rings. […] Instead, a π – π stacking interaction with F259 was observed (Fig. S3i).
HEK293 cells were plated on a 96-well plate and treated with different concentrations of Dvl inhibitors. After 24 h treatment, 20 µL of MTT solution (5 mg mL ^-1 ) was added into each well. After 2 h incubation, cell culture medium was replaced with 50 µL DMSO, and the signal of the purple formazan, produced by living cells, was measured by a plate reader.

Dvl-3 PDZ [3] = target: T1, Dvl-3 PDZ; assay: Binding constant by NMR titration; settings: by NMR; mean ± SD of at least six residues; read-out: K D Dvl-3 PDZ
Excerpt: (§1) K D is the equilibrium dissociation constant.

Dvl-3 PDZ [4] = assay: Binding constant by NMR titration; parameters: species or system human; settings: from NMR K D values
Excerpt: as §1

Chemical shift perturbation ΔCSP (Dvl-3 PDZ [2])	Kd (Dvl-3 PDZ [3]) [µM]	SMILES	EC50 at 24 h (MTT cell viability assay) [µM]	also measured
around 0.1 ppm	–	O=C(Cc1ccccc1)Nc1cccc(C(=O)Nc2ccccc2C(=O)O)c1 [CBC-322338/3289-8625, reference compound]	–	binding to Dvl-3 PDZ (in words) (Dvl-3 PDZ [1]; ITC): did not show; Kd (Dvl-3 PDZ [1]): > 400 µM; Kd (Dvl-3 PDZ [2]; estimated from NMR CSP comparison and weak heat in ITC, read-out: binding affinity to Dvl-3): < 50 µM
0.12 ppm	–	CC[C@H](C)[C@H](NS(=O)(=O)c1ccc2c(c1)OCCO2)C(=O)O [Compound 1, ((2,3-dihydrobenzo[b][1,4]dioxin-6-yl)sulfonyl)-L-isoleucine]	–	–
> 0.2 ppm	–	CN1C(=O)Cc2cc(S(=O)(=O)Nc3ccc(F)cc3C(=O)O)ccc21 [Compound 2]	–	–
–	80.6 ± 6.1	O=C(O)c1cc(F)ccc1NS(=O)(=O)c1ccc2c(c1)CCC2 [Compound 3]	61 to 131	discrimination between Dvl-3 PDZ and Dvl-1 PDZ (in words) (Dvl-3 PDZ [4]): did not distinguish
–	83.9 ± 7.8	Cc1ccc(S(=O)(=O)Nc2ccc(F)cc2C(=O)O)cc1C [Compound 4]	–	discrimination between Dvl-3 PDZ and Dvl-1 PDZ (in words) (Dvl-3 PDZ [4]): did not distinguish
–	20.6 ± 2.4	O=C(O)c1cc(Br)ccc1NS(=O)(=O)c1ccc2c(c1)CCCC2 [Compound 7]	61 to 131	–
–	–	O=C(O)c1cc(C(F)(F)F)ccc1NS(=O)(=O)c1ccc2c(c1)CCCC2 [Compound 8, 2-(5,6,7,8-Tetrahydronaphthalene-2-sulfonamido)-5-(trifluoromethyl) benzoic acid]	61 to 131	Kd (Dvl-3 PDZ [1]): 17.4 ± 0.5 µM
–	41.1 ± 3.1	O=C(O)c1cc(Cl)ccc1NS(=O)(=O)c1ccc2c(c1)CCCC2 [Compound 9]	61 to 131	–
–	62.5 ± 4.7	Cc1ccc(NS(=O)(=O)c2ccc3c(c2)CCCC3)c(C(=O)O)c1 [Compound 10]	61 to 131	–
